Experimental data as given in PubChem BioAssay (NCI).
Converted amounts (≈) assume the structure as drawn.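 Five concentrations, 48 hours, 96-well plates. Abbreviation: GI50, concentration required for 50% inhibition of growth. TGI marks complete inhibition of growth.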

Tests used:
Assay in all cases: NCI anticancer screen, dose series, 48 h
HT29 colon = tested on: HT29 colon
SK-OV-3 ovarian = tested on: SK-OV-3 ovarian
UO-31 renal = tested on: UO-31 renal
OVCAR-8 ovarian = tested on: OVCAR-8 ovarian
CCRF-CEM leukemia = tested on: CCRF-CEM leukemia
A549 NSCLC = tested on: A549 NSCLC
RPMI-8226 leukemia = tested on: RPMI-8226 leukemia
NCI-H460 lung = tested on: NCI-H460 lung
SW-620 colon = tested on: SW-620 colon
OVCAR-3 ovarian = tested on: OVCAR-3 ovarian

SMILES: O=C1CC2CC3OC3[C@H]3c4cc5c(cc4C(=O)N1C23)OCO5 (stereo not given in full)
- TGI (HT29 colon): > 100 µM
- TGI (SK-OV-3 ovarian): > 100 µM
- TGI (UO-31 renal): > 100 µM
- TGI (OVCAR-8 ovarian): > 100 µM
- TGI (CCRF-CEM leukemia): > 100 µM
- TGI (A549 NSCLC): > 100 µM
- TGI (RPMI-8226 leukemia): > 100 µM
- TGI (NCI-H460 lung): > 100 µM
- TGI (SW-620 colon): > 100 µM
- TGI (OVCAR-3 ovarian): > 100 µM

SMILES: CC(=O)Nc1ccc(C(=O)NN2C(=O)C(Cl)/C2=C/c2ccco2)cc1 (stereo not given)
- TGI (HT29 colon): > 100 µM
- TGI (SK-OV-3 ovarian): > 100 µM
- TGI (UO-31 renal): > 100 µM
- TGI (OVCAR-8 ovarian): > 100 µM
- TGI (CCRF-CEM leukemia): > 100 µM
- TGI (A549 NSCLC): > 100 µM
- TGI (RPMI-8226 leukemia): > 100 µM
- TGI (NCI-H460 lung): > 100 µM
- TGI (SW-620 colon): > 100 µM
- TGI (OVCAR-3 ovarian): > 100 µM

SMILES: COc1cc(C(C)O)c(S(=O)(=O)CC(C)O)nn1 (stereo not given)
- TGI (HT29 colon): > 100 µM
- TGI (SK-OV-3 ovarian): > 100 µM
- TGI (UO-31 renal): > 100 µM
- TGI (OVCAR-8 ovarian): > 100 µM
- TGI (CCRF-CEM leukemia): > 100 µM
- TGI (A549 NSCLC): > 100 µM
- TGI (RPMI-8226 leukemia): > 100 µM
- TGI (NCI-H460 lung): > 100 µM
- TGI (SW-620 colon): > 100 µM
- TGI (OVCAR-3 ovarian): > 100 µM

SMILES: Nc1[nH]nc(Nc2ccc(Cl)cc2)c1P(=O)(c1ccccc1)c1ccccc1
- TGI (HT29 colon): 65.2 µM
- TGI (SK-OV-3 ovarian): > 100 µM
- TGI (UO-31 renal): > 100 µM
- TGI (OVCAR-8 ovarian): 46.4 µM
- TGI (CCRF-CEM leukemia): 86.1 µM
- TGI (A549 NSCLC): > 100 µM
- TGI (RPMI-8226 leukemia): > 100 µM
- TGI (NCI-H460 lung): > 100 µM
- TGI (SW-620 colon): > 100 µM
- TGI (OVCAR-3 ovarian): 41.5 µM

SMILES: CC(=O)c1c(C)nc(SSc2nc(C)c(C(C)=O)c(-c3ccc(Cl)cc3)c2C#N)c(C#N)c1-c1ccc(Cl)cc1
- GI50 (HT29 colon): > 150 µg/mL
- TGI (HT29 colon): > 150 µg/mL
- GI50 (SK-OV-3 ovarian): 29.3 µg/mL (≈ 48.6 µM)
- TGI (SK-OV-3 ovarian): > 150 µg/mL
- GI50 (UO-31 renal): 82 µg/mL (≈ 136 µM)
- TGI (UO-31 renal): > 150 µg/mL
- GI50 (OVCAR-8 ovarian): 79.2 µg/mL (≈ 131 µM)
- TGI (OVCAR-8 ovarian): > 150 µg/mL
- GI50 (CCRF-CEM leukemia): > 150 µg/mL
- TGI (CCRF-CEM leukemia): > 150 µg/mL
- GI50 (A549 NSCLC): 73 µg/mL (≈ 121 µM)
- TGI (A549 NSCLC): > 150 µg/mL
- GI50 (RPMI-8226 leukemia): > 150 µg/mL
- TGI (RPMI-8226 leukemia): > 150 µg/mL
- GI50 (NCI-H460 lung): 136 µg/mL (≈ 225 µM)
- TGI (NCI-H460 lung): > 150 µg/mL
- GI50 (SW-620 colon): 69.4 µg/mL (≈ 115 µM)
- TGI (SW-620 colon): > 150 µg/mL
- GI50 (OVCAR-3 ovarian): 59.9 µg/mL (≈ 99.2 µM)
- TGI (OVCAR-3 ovarian): > 150 µg/mL

SMILES: CC(=O)OCC1OC(n2cc(F)c(=O)[nH]c2=O)C(NC(=O)OCc2ccccc2)C(OC(C)=O)C1OC(C)=O (stereo not given)
- TGI (HT29 colon): > 100 µM
- TGI (SK-OV-3 ovarian): > 100 µM
- TGI (UO-31 renal): > 100 µM
- TGI (OVCAR-8 ovarian): > 100 µM
- TGI (CCRF-CEM leukemia): > 100 µM
- TGI (A549 NSCLC): > 100 µM
- TGI (RPMI-8226 leukemia): > 100 µM
- TGI (NCI-H460 lung): > 100 µM
- TGI (SW-620 colon): > 100 µM
- TGI (OVCAR-3 ovarian): > 100 µM
